Measurements reported in ChEMBL document CHEMBL1123766, “2-Amino- and 2-guanidino-1,2,3,4-tetrahydro-1,4-epoxynaphthalenes as conformationally defined analogues of alpha-adrenergic agents” (J Med Chem, 1987).

Tests used:
[1] = target: T1, Adrenergic receptor alpha-2 (Rattus norvegicus) (UniProt P22086+P19328+P22909); assay: Evaluated for alpha-2 adrenergic receptor activity in the field stimulated rat vas deferens preparation.*-confirmed by pretreatment with reserpine (3 mg/kg) 16 hr prior to sacrifice. Stimulatory effects blocked by prazosin (78 nM).
[2] = target: T1, Adrenergic receptor alpha-2 (Rattus norvegicus); assay: Approximate efficacy based on maximal effect produced by […] was determined against the alpha-2 adrenergic receptor; type: protein assay
[3] = target: T1, Adrenergic receptor alpha-2 (Rattus norvegicus); assay: Evaluated for alpha-2 adrenergic receptor activity in the field stimulated rat vas deferens preparation.; type: tissue-based
[4] = target: T1, Adrenergic receptor alpha-2 (Rattus norvegicus); assay: Evaluated for alpha-2 adrenergic receptor activity in the field stimulated rat vas deferens preparation.* Stimulatory effects blocked by prazosin (78 nM).; type: tissue-based
[5] = target: T1, Adrenergic receptor alpha-2 (Rattus norvegicus); assay: Evaluated for alpha-2 adrenergic receptor activity in the field stimulated rat vas deferens preparation.* Confirmed by pretreatment with reserpine (3 mg/kg) 16 hr prior to sacrifice. Stimulatory effects blocked by prazosin (78 nM). Value estimated in the presen
[6] = target: T1, Adrenergic receptor alpha-2 (Rattus norvegicus); assay: Evaluated for alpha-2 adrenergic receptor activity in the field stimulated rat vas deferens preparation; type: tissue-based

Row | Structure (SMILES) | Efficacy [2] | pD2 [6] | also measured
1 | COc1ccc(OC)c2c1C1C[C@H](N)C2O1 (some centres undefined) | 0.9 |  | pD2 [1]: 5.08
2 | COc1ccc(OC)c2c1C1C[C@@H](N)C2O1 (some centres undefined) |  |  | pD2 [3]: 3.49
3 | COc1ccc(OC)c2c1C1CC(N=C(N)N)C2O1 (centres undefined) | 0.7 |  | pD2 [4]: 4.75
4 | N[C@H]1CC2OC1c1ccccc12 (some centres undefined) |  |  | pD2 [5]: 4.9
5 | N[C@@H]1CC2OC1c1ccccc12 (some centres undefined) |  | < 3 | 
6 | COc1ccc(OC)c(C(O)C(C)N)c1 (centres undefined) | 1 | 6.48 | 
